The subject of one experiment is animal pain models. To be noted: in vivo, iv; cited from earlier work.
For experiment [1], the system named is model of peripheral neuropathy in the rat. To be noted: ref Franek et al., 2004; cited from earlier work. From the text:
Furthermore, GABAB receptor activation inhibits the activity of N-type CaV channels (CaV2.2) and inhibition of N-type channels expressed by nocicept ...

Experiment [2] relates to eEPSCs in the dorsal horn of rat spinal cord. To be noted: cited from earlier work.
Experiment [3] has as its system CaV current in rat sensory neurons (DRG). Description: cells. It is filed as cell-based, rat (adult male Sprague Dawley). To be noted: for inhibition at 30 µM: Rattus norvegicus, Neuron.

The values below come from article PMC4465272 (eNeuro, 2015).

Usually inhibition stands for the relative decrease from the control value, in per cent.

Entries after “also recorded” stand apart in the source; their conditions may differ. Where two headings read alike, the source gives them in different places.

With ziconotide [reference compound], the “effect on neuropathic pain” value with animal pain models is “did not decrease neuropathic pain”.
With `NCC(CC(=O)O)c1ccc(Cl)cc1` (stereo not shown) [baclofen, reference compound], the analgesic effect entry in experiment [1] is “analgesic effects”. In experiment [2], the “effect on eEPSCs / EPSPs in dorsal horn” value was “strongly inhibited; also recorded: almost completely blocked”. In addition, the “sensory neurons with CaV current inhibited by baclofen” value in experiment [3] came out at 95%. In addition, in experiment [3], the “voltage dependence of CaV current inhibition” value is given as “voltage-dependent”. The inhibition at 30 µM was 22% in experiment [3] (read-out: CaV current inhibition in the neuron with the largest Vc1.1 and RgIA response); 34% in experiment [3] (read-out: CaV current inhibition in the neuron with the largest baclofen response); 20 to 24% in experiment [3] (read-out: baclofen-induced CaV current inhibition in seven other neurons); 12 ± 5.5% in experiment [3] (read-out: postpulse CaV current inhibition); 19.2 ± 6.8% in experiment [3] (read-out: prepulse CaV current inhibition).
